Assay results taken from PubChem BioAssay AID256 (DTP/NCI, 2004).
Several values for one entry are separate records, joined by “and”; a condition that tells them apart may be missing. Equal values may be shown once. Toxic doses and inconclusive results are not listed. The calls were made as follows: active = survival T/C of 150% or more; inactive = T/C below 125% in these data.

Tested on: CD2F1 mice, L1210 leukemia ip, survival T/C
Assay: NCI In Vivo Anticancer Drug Screen. Data for tumor model L1210 Leukemia (intraperitoneal) in CD2F1 (CDF1) mice
Conditions: higher = longer survival
Outline: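 Transplantable tumor in mice; compound-treated vs vehicle-treated groups. Read-out = treated/control ratio of the measured endpoint.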

[1] = endpoint: mean survival time, dose: 100.0 mg/kg/injection, schedule: Q01DX001 (ip), vehicle: saline
[2] = endpoint: mean survival time, dose: 200.0 mg/kg/injection, schedule: Q01DX001 (ip), vehicle: saline
[3] = endpoint: mean survival time, dose: 12.5 mg/kg/injection, schedule: Q01DX009 (ip), vehicle: Klucel (hydroxypropylcellulose) (HPC)
[4] = endpoint: mean survival time, dose: 25.0 mg/kg/injection, schedule: Q01DX009 (ip), vehicle: saline with Tween-80
[5] = endpoint: mean survival time, dose: 50.0 mg/kg/injection, schedule: Q01DX009 (ip), vehicle: saline with Tween-80
[6] = endpoint: mean survival time, dose: 100.0 mg/kg/injection, schedule: Q01DX009 (ip), vehicle: saline with Tween-80
[7] = endpoint: mean survival time, dose: 100.0 mg/kg/injection, schedule: Q04DX003 (ip), vehicle: saline
[8] = endpoint: mean survival time, dose: 200.0 mg/kg/injection, schedule: Q04DX003 (ip), vehicle: saline
[9] = endpoint: mean survival time, dose: 100.0 mg/kg/injection, schedule: Q04DX003 (ip), vehicle: saline with Tween-80
[10] = endpoint: mean survival time, dose: 200.0 mg/kg/injection, schedule: Q04DX003 (ip), vehicle: saline with Tween-80

Measured: T/C

NC(=S)N/N=C/C(=O)c1ccc(Br)cc1
inactive: [1] 102 % of control | [2] 100 % of control

CC1=CC(=O)OC1CC(=O)O (stereo not drawn)
inactive: endpoint: mean survival time, dose: 50.0 mg/kg/injection, schedule: Q01DX009 (ip), vehicle: saline 97 % of control | endpoint: mean survival time, dose: 100.0 mg/kg/injection, schedule: Q01DX009 (ip), vehicle: saline 97 % of control | endpoint: mean survival time, dose: 200.0 mg/kg/injection, schedule: Q01DX009 (ip), vehicle: saline 103 % of control

O=C(C[n+]1cc2ccccc2cc1Cl)c1ccccc1
inactive: endpoint: mean survival time, dose: 100.0 mg/kg/injection, schedule: Q04DX003 (ip), vehicle: Klucel (hydroxypropylcellulose) (HPC) 97 % of control | endpoint: mean survival time, dose: 200.0 mg/kg/injection, schedule: Q04DX003 (ip), vehicle: Klucel (hydroxypropylcellulose) (HPC) 88 % of control

Cc1cc(N(CC(C)Cl)CC(C)Cl)ccc1N=Nc1ccccc1C(=O)O (stereo not drawn)
inactive: endpoint: mean survival time, dose: 1.56 mg/kg/injection, schedule: Q01DX009 (ip), vehicle: Klucel (hydroxypropylcellulose) (HPC) 104 % of control | endpoint: mean survival time, dose: 3.12 mg/kg/injection, schedule: Q01DX009 (ip), vehicle: Klucel (hydroxypropylcellulose) (HPC) 104 % of control | endpoint: mean survival time, dose: 6.25 mg/kg/injection, schedule: Q01DX009 (ip), vehicle: Klucel (hydroxypropylcellulose) (HPC) 117 % of control and 109 % of control | [3] 111 % of control

COC(=O)CCC(C)C1CCC2C3C(O)CC4CC(O)CCC4(C)C3CC(O)C12C (stereo not drawn)
inactive: [4] 96 % of control | [5] 93 % of control | [6] 95 % of control and 100 % of control

CCCCNC(C)(C)C(SS)c1ccc(Cl)cc1 (stereo not drawn)
inactive: [7] 94 % of control | [8] 105 % of control

CN(C)/C=C/C#N
inactive: endpoint: mean survival time, dose: 75.0 mg/kg/injection, schedule: Q01DX001 (ip), vehicle: saline 102 % of control

CCC(C)(C)OC(=O)Nc1ccc(C)c(NC(=O)OC(C)(C)CC)c1
inactive: endpoint: mean survival time, dose: 75.0 mg/kg/injection, schedule: Q01DX001 (ip), vehicle: other 86 % of control | endpoint: mean survival time, dose: 150.0 mg/kg/injection, schedule: Q01DX001 (ip), vehicle: other 86 % of control | endpoint: mean survival time, dose: 300.0 mg/kg/injection, schedule: Q01DX001 (ip), vehicle: other 90 % of control

CCOC(=O)c1ccc(Nc2nnc(-c3c(OC)cc(OC)cc3OC)s2)cc1
inactive: [4] 88 % of control | [5] 88 % of control | [6] 89 % of control | endpoint: mean survival time, dose: 200.0 mg/kg/injection, schedule: Q01DX009 (ip), vehicle: saline with Tween-80 88 % of control | endpoint: mean survival time, dose: 400.0 mg/kg/injection, schedule: Q01DX009 (ip), vehicle: saline with Tween-80 88 % of control

CC(C)(C)N.[O]=[Cr](=[O])([OH])[OH]
inactive: endpoint: mean survival time, dose: 5.0 mg/kg/injection, schedule: Q01DX001 (ip), vehicle: saline 104 % of control | endpoint: mean survival time, dose: 10.0 mg/kg/injection, schedule: Q01DX001 (ip), vehicle: saline 102 % of control | endpoint: mean survival time, dose: 20.0 mg/kg/injection, schedule: Q01DX001 (ip), vehicle: saline 96 % of control | endpoint: mean survival time, dose: 40.0 mg/kg/injection, schedule: Q01DX001 (ip), vehicle: saline 94 % of control

O=C(O)C(O)C(O)C(O)CO (stereo not drawn)
inactive: [7] 95 % of control | [8] 105 % of control | endpoint: mean survival time, dose: 400.0 mg/kg/injection, schedule: Q04DX003 (ip), vehicle: saline 97 % of control

O=S(=O)(O)c1ccc(N=Nc2cc(O)cc3ccccc23)cc1
inactive: endpoint: mean survival time, dose: 6.25 mg/kg/injection, schedule: Q01DX001 (ip), vehicle: saline 96 % of control | endpoint: mean survival time, dose: 12.5 mg/kg/injection, schedule: Q01DX001 (ip), vehicle: saline 92 % of control | endpoint: mean survival time, dose: 25.0 mg/kg/injection, schedule: Q01DX001 (ip), vehicle: saline 88 % of control | [1] 86 % of control | [2] 88 % of control | endpoint: mean survival time, dose: 400.0 mg/kg/injection, schedule: Q01DX001 (ip), vehicle: saline 96 % of control

CC(=O)N(C(C)=O)c1nc(Br)c2ccccc2c1-c1ccc([N+](=O)[O-])cc1
inactive: endpoint: mean survival time, dose: 50.0 mg/kg/injection, schedule: Q04DX003 (ip), vehicle: other 100 % of control | endpoint: mean survival time, dose: 100.0 mg/kg/injection, schedule: Q04DX003 (ip), vehicle: other 94 % of control | endpoint: mean survival time, dose: 200.0 mg/kg/injection, schedule: Q04DX003 (ip), vehicle: other 94 % of control | endpoint: mean survival time, dose: 400.0 mg/kg/injection, schedule: Q04DX003 (ip), vehicle: other 88 % of control

CC1(C)OC2C3COP(=O)(N(CCCl)CCCl)NC(O3)C2O1 (stereo not drawn)
inactive: endpoint: mean survival time, dose: 3.9 mg/kg/injection, schedule: Q01DX001 (ip), vehicle: distilled water + Tween-80 98 % of control | endpoint: mean survival time, dose: 3.9 mg/kg/injection, schedule: Q01DX001 (ip), vehicle: distilled water + alcohol 103 % of control | endpoint: mean survival time, dose: 7.8 mg/kg/injection, schedule: Q01DX001 (ip), vehicle: distilled water + Tween-80 98 % of control | endpoint: mean survival time, dose: 7.8 mg/kg/injection, schedule: Q01DX001 (ip), vehicle: distilled water + alcohol 108 % of control | endpoint: mean survival time, dose: 15.6 mg/kg/injection, schedule: Q01DX001 (ip), vehicle: distilled water + alcohol 98 % of control | endpoint: mean survival time, dose: 31.2 mg/kg/injection, schedule: Q01DX001 (ip), vehicle: distilled water + Tween-80 98 % of control | endpoint: mean survival time, dose: 31.2 mg/kg/injection, schedule: Q01DX001 (ip), vehicle: distilled water + alcohol 103 % of control | endpoint: mean survival time, dose: 31.3 mg/kg/injection, schedule: Q01DX001 (ip), vehicle: distilled water + Tween-80 98 % of control | endpoint: mean survival time, dose: 62.5 mg/kg/injection, schedule: Q01DX001 (ip), vehicle: distilled water + Tween-80 98 % of control | endpoint: mean survival time, dose: 125.0 mg/kg/injection, schedule: Q01DX001 (ip), vehicle: distilled water + Tween-80 96 % of control | endpoint: mean survival time, dose: 250.0 mg/kg/injection, schedule: Q01DX001 (ip), vehicle: distilled water + Tween-80 96 % of control | endpoint: mean survival time, dose: 500.0 mg/kg/injection, schedule: Q01DX001 (ip), vehicle: distilled water + Tween-80 97 % of control

C=C1COC(O)(C2OCOC(C3CC(=O)NC(=O)C3)C2O)C1C (stereo not drawn)
inactive: endpoint: median survival time, dose: 4.0 micrograms/kg/injection, schedule: Q01DX009 (ip), vehicle: water 103 % of control | endpoint: median survival time, dose: 8.0 micrograms/kg/injection, schedule: Q01DX009 (ip), vehicle: saline 110 % of control | endpoint: median survival time, dose: 8.0 micrograms/kg/injection, schedule: Q01DX009 (ip), vehicle: water 118 % of control and 102 % of control | endpoint: median survival time, dose: 16.0 micrograms/kg/injection, schedule: Q01DX009 (ip), vehicle: saline 116 % of control | endpoint: median survival time, dose: 16.0 micrograms/kg/injection, schedule: Q01DX009 (ip), vehicle: water 116 % of control | endpoint: median survival time, dose: 32.0 micrograms/kg/injection, schedule: Q01DX009 (ip), vehicle: saline 118 % of control

[NH-]NC(=S)[S-].[NH-]NC(=S)[S-].[Ni]
inactive: [9] 98 % of control | [10] 102 % of control | endpoint: mean survival time, dose: 400.0 mg/kg/injection, schedule: Q04DX003 (ip), vehicle: saline with Tween-80 107 % of control

CC(C)(C)OC(=O)NCCCC(=O)O
inactive: [9] 93 % of control | [10] 90 % of control

Cc1ccc(S(=O)(=O)OCC(O)C2OCOC3COCOC32)cc1 (stereo not drawn)
inactive: endpoint: mean survival time, dose: 100.0 mg/kg/injection, schedule: Q01DX001 (ip), vehicle: Klucel (hydroxypropylcellulose) (HPC) 101 % of control | endpoint: mean survival time, dose: 200.0 mg/kg/injection, schedule: Q01DX001 (ip), vehicle: Klucel (hydroxypropylcellulose) (HPC) 103 % of control | endpoint: mean survival time, dose: 400.0 mg/kg/injection, schedule: Q01DX001 (ip), vehicle: Klucel (hydroxypropylcellulose) (HPC) 98 % of control | endpoint: mean survival time, dose: 600.0 mg/kg/injection, schedule: Q01DX001 (ip), vehicle: Klucel (hydroxypropylcellulose) (HPC) 93 % of control

Cc1ccc([N+](=O)[O-])cc1NC(=O)Nc1onc(C)c1C
inactive: [3] 89 % of control | endpoint: mean survival time, dose: 25.0 mg/kg/injection, schedule: Q01DX009 (ip), vehicle: Klucel (hydroxypropylcellulose) (HPC) 95 % of control

O=C(CF)[O][Sb]([O]C(=O)CF)([c]1ccccc1)([c]1ccccc1)[c]1ccccc1
inactive: endpoint: mean survival time, dose: 5.0 mg/kg/injection, schedule: Q01DX009 (ip), vehicle: saline with Tween-80 105 % of control | endpoint: mean survival time, dose: 10.0 mg/kg/injection, schedule: Q01DX009 (ip), vehicle: saline with Tween-80 108 % of control
